US8822517B2, “Arylosulfonamides for the treatment of CNS diseases” (Adamed SP. Z O.O., priority 2010, dated 2014)

What was measured:
[1] = molecular target: serotoninergic 5-HT7 receptor (Homo sapiens, UniProt P34969); test: Binding assay 5-HT7 (h), [3H]LSD, CHO cells; parameters: expressed in transfected cells; host or cells: CHO cells; details: read-out: 5-HT7
Experimental: (§1) The specific ligand binding to the receptors is defined as the difference between the total binding and the nonspecific binding determined in the presence of an excess of so unlabelled ligand.
(§2) The specific Ligand binding to the receptor is defined as the difference between total and non-specific binding determined in the presence of an excess of unlabelled ligand. The compounds were tested at a concentration of 1×10^−6 M, and scintillation counting was the method of detection of ligand binding.

[2] = molecular target: T1, serotoninergic 5-HT1A receptor (Homo sapiens, UniProt P08908); test: Binding assay 5-HT1A (h), [3H]8-OH-DPAT, HEK-293 cells; parameters: expressed in transfected cells; host or cells: HEK-293 cells; details: read-out: 5-HT1A
T1 sequence (P08908 1-422): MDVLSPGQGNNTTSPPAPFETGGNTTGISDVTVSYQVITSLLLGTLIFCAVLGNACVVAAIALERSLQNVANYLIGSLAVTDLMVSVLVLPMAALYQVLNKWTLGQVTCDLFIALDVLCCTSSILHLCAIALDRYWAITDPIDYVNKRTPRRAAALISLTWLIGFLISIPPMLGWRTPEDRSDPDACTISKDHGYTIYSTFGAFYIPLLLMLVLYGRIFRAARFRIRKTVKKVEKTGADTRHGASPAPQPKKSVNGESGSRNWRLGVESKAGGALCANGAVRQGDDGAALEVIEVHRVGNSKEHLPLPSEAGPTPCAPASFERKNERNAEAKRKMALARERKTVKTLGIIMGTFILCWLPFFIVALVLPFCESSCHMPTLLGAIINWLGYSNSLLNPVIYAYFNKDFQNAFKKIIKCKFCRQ
Experimental: as §1, §2

[3] = molecular target: dopaminergic D2 receptor (Homo sapiens, UniProt P14416); test: Binding assay D2S (h), [3H]methyl-spiperone, HEK-293 cells; parameters: expressed in transfected cells; host or cells: HEK-293 cells; details: read-out: D2 [%]
Sequence of dopaminergic D2 receptor (P14416 1-414 isoform P14416-2): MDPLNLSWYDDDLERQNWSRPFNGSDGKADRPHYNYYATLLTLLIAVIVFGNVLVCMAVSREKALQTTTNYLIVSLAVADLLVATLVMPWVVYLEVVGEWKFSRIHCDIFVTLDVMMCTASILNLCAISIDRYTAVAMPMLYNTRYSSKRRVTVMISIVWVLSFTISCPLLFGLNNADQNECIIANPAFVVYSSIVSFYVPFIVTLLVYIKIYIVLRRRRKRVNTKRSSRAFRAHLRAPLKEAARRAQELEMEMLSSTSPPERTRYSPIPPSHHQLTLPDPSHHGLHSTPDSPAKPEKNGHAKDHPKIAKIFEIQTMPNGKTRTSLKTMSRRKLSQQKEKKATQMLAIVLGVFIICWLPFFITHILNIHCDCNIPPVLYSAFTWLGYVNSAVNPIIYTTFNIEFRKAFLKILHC
Experimental: as §1, §2

[4] = molecular target: serotoninergic 5-HT2A receptor (Homo sapiens, UniProt P28223); test: Binding assay 5-HT2A (h), [3H]ketanserin, HEK-293 cells; parameters: expressed in transfected cells; host or cells: HEK-293 cells; details: read-out: 5-HT2A
Sequence of serotoninergic 5-HT2A receptor (P28223 whole entry): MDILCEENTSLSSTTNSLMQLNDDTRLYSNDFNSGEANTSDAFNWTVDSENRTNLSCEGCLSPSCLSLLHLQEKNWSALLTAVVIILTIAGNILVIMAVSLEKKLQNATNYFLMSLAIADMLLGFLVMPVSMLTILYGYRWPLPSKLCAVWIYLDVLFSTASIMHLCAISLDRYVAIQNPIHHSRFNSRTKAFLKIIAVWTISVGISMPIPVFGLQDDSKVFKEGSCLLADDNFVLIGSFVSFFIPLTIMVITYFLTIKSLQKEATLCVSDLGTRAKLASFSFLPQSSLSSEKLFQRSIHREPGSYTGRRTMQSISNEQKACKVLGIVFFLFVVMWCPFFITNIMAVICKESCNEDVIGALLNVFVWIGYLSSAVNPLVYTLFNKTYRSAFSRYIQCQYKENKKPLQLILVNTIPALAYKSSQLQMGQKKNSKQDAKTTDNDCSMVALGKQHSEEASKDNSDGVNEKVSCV
Experimental: as §1, §2

[5] = molecular target: T2, serotonine transporter (SERT) receptor (Homo sapiens, UniProt P31645); test: Binding assay SERT (h), [3H]imipramine, CHO cells; details: read-out: SERT [%]
T2 construct: expressed in transfected cells; host or cells: CHO cells
T2 sequence (P31645 whole entry): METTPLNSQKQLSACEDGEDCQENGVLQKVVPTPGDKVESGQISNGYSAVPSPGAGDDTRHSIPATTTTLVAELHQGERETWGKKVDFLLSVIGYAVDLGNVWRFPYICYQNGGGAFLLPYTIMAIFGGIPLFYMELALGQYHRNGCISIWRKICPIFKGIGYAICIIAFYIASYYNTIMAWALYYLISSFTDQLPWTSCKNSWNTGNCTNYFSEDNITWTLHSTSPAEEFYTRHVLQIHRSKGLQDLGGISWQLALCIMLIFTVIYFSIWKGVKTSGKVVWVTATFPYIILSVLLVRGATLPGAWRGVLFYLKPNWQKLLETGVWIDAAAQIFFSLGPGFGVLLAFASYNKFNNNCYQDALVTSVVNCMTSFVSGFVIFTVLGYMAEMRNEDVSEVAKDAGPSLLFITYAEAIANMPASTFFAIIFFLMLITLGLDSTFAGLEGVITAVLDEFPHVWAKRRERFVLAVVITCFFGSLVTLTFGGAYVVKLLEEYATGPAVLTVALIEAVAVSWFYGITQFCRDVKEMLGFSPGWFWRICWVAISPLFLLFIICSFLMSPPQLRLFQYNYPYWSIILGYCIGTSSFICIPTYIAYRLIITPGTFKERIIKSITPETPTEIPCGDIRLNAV
Experimental: as §1, §2

[6] = molecular target: serotoninergic 5-HT6 receptor (Homo sapiens, UniProt P50406); test: Binding assay 5-HT6 (h), [3H]LSD, CHO cells; parameters: expressed in transfected cells; host or cells: CHO cells; details: read-out: 5-HT6
Sequence of serotoninergic 5-HT6 receptor (P50406 whole entry): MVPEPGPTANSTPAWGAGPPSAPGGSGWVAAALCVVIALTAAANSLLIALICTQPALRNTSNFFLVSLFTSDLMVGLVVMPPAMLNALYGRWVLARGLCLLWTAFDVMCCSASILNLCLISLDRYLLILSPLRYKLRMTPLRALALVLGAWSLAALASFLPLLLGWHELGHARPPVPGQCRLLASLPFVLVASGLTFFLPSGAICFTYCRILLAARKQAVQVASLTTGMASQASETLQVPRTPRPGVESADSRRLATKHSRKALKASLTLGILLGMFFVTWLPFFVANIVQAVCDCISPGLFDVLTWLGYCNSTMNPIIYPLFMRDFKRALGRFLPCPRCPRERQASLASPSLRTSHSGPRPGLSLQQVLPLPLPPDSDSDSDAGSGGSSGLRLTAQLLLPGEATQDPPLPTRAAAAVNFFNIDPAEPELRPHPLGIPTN
Experimental: as §1, §2

[7] = molecular target: dopaminergic D3 receptor (Homo sapiens, UniProt P35462); test: Binding assay D3 (h), [3H]methyl-spiperone, CHO cells; parameters: expressed in transfected cells; host or cells: CHO cells; details: read-out: D3 [%]
Sequence of dopaminergic D3 receptor (P35462 whole entry): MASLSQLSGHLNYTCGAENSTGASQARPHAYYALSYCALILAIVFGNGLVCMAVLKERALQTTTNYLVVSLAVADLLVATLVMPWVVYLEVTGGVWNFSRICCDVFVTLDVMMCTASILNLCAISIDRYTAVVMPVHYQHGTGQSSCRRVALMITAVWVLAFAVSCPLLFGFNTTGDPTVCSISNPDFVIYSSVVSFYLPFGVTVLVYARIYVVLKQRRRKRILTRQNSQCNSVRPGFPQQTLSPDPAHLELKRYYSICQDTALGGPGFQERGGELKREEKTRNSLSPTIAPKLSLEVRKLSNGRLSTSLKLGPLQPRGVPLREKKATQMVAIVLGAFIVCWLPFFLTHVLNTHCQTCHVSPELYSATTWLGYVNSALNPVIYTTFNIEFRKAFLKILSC
Experimental: as §1, §2

[8] = system: adrenergic α1 receptor; test: Binding assay α1 (non-selective), [3H]prazosin, rat cerebral cortex; details: percent inhibition of control specific binding; compounds tested at 1×10^−6 M
Experimental: as §1, §2

Sequence of serotoninergic 5-HT7 receptor (P34969 whole entry): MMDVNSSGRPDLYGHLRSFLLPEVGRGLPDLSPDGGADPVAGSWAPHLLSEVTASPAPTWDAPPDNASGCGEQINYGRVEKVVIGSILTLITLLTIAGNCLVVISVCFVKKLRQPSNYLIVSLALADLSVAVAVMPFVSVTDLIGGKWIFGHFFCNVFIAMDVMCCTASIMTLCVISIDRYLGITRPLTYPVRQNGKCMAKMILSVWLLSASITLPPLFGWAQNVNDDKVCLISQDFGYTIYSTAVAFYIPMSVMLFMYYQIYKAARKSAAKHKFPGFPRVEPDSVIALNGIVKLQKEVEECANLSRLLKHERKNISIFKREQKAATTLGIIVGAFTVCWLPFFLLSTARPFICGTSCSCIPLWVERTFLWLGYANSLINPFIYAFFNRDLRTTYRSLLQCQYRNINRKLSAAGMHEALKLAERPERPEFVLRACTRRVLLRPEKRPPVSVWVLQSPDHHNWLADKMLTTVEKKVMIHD

Compound	inhibition at 1 µM [1] [%]	inhibition at 1 µM [2] [%]	inhibition at 1 µM [3] [%]	inhibition at 1 µM [4] [%]	inhibition at 1 µM [5] [%]	inhibition at 1 µM [6] [%]	inhibition at 1 µM [7] [%]	α1 [%] [8] [%]
O=S(=O)(NCCCCN1CCC(c2noc3cc(F)ccc23)CC1)c1cccc(Br)c1 [Compound 109, 3-Bromo-N-[4-[4-(6-fluoro-1,2-benzoxazol-3-yl)piperidin-1-yl]butyl]benzenesulphonamide]	92	86	100	93	15	84	99	101
O=S(=O)(NCCCCN1CCC(c2noc3cc(F)ccc23)CC1)c1ccc(-c2ccccc2)cc1 [Compound 111, N-[4-[4-(6-Fluoro-1,2-benzoxazol-3-yl)piperidin-1-yl]butyl]-4-phenylbenzenesulphonamide]	93	39	108	96	-14	95	93	100
O=S(=O)(NCCCN1CCC(c2noc3cc(F)ccc23)CC1)c1ccc(-c2ccccc2)cc1 [Compound 112, N-[3-[4-(6-Fluoro-1,2-benzoxazol-3-yl)piperidin-1-yl]propyl]-4-phenylbenzenesulphonamide]	95	20	103	93	-17	94	98	99
Cc1[nH]c2ccc(Cl)cc2c1C1=CCN(CCCCNS(=O)(=O)c2cccc(Cl)c2)CC1 [Compound 137, N-[4-[4-(5-Chloro-2-methyl-1H-indol-3-yl)-3,6-dihydro-2H-pyridin-1-yl]butyl]-3-chlorobenzenesulphonamide]	33	39	65	47	38	91	92	10
Cc1[nH]c2ccc(Cl)cc2c1C1=CCN(CCCNS(=O)(=O)c2cccc(Cl)c2)CC1 [Compound 138, N-[3-[4-(5-Chloro-2-methyl-1H-indol-3-yl)-3,6-dihydro-2H-pyridin-1-yl]propyl]-3-chlorobenzenesulphonamide]	52	54	40	62	25	95	57	8
Cc1[nH]c2ccc(Cl)cc2c1C1=CCN(CCCCNS(=O)(=O)c2cccc(F)c2)CC1 [Compound 139, N-[4-[4-(5-Chloro-2-methyl-1H-indol-3-yl)-3,6-dihydro-2H-pyridin-1-yl]butyl]-3-fluorobenzenesulphonamide]	56	57	52	41	17	96	92	20
Cc1[nH]c2ccc(Cl)cc2c1C1=CCN(CCCNS(=O)(=O)c2cccc(F)c2)CC1 [Compound 140, N-[3-[4-(5-Chloro-2-methyl-1H-indol-3-yl)-3,6-dihydro-2H-pyridin-1-yl]propyl]-3-fluorobenzenesulphonamide]	81	56	47	68	14	92	73	17
Cc1c(S(=O)(=O)NCCCCN2CCN(c3cccc4[nH]c(=O)[nH]c34)CC2)sc2ccc(Cl)cc12 [Compound 165, 5-Chloro-3-methyl-N-[4-[4-(2-oxo-1,3-dihydrobenzimidazol-4-yl)piperazin-1-yl]butyl]-1-benzothiophene-2-sulfonamide]	86	70	64	37	4	-16	89	47
O=S(=O)(NCCCCN1CCN(c2nsc3ccccc23)CC1)c1ccc(Cl)s1 [Compound 195, N-[4-[4-(1,2-Benzothiazol-3-yl)piperazin-1-yl]butyl]-5-chloro-thiophene-2-sulphonamide]	98	89	99	91	-3	60	89	96
O=C1COc2c(cccc2N2CCN(CCCCNS(=O)(=O)c3cccc(Cl)c3)CC2)N1 [Compound 209, 3-Chloro-N-[4-[4-(3-oxo-4H-1,4-benzoxazin-8-yl)piperazin-1-yl]butyl]benzenesulphonamide]	85	92	82	29	-1	70	103	90
O=C1COc2c(cccc2N2CCN(CCCCNS(=O)(=O)c3cccc(F)c3)CC2)N1 [Compound 211, 3-Fluoro-N-[4-[4-(3-oxo-4H-1,4-benzoxazin-8-yl)piperazin-1-yl]butyl]benzenesulphonamide]	81	86	81	32	33	32	102	80
O=S(=O)(NCCCCN1CCN(c2nsc3ccccc23)CC1)c1ccc(F)cc1 [Compound 225, N-[4-[4-(1,2-Benzothiazol-3-yl)piperazin-1-yl]butyl]-4-fluorobenzenesulphonamide]	92	87	77	84	-4	74	76	94
O=S(=O)(NCCCCN1CCN(c2nsc3ccccc23)CC1)c1ccc(F)c(F)c1 [Compound 226, N-[4-[4-(1,2-Benzothiazol-3-yl)piperazin-1-yl]butyl]-3,4-difluorobenzenesulphonamide]	92	90	87	100	4	78	90	94
O=S(=O)(NCCCCN1CCN(c2nsc3ccccc23)CC1)c1ccc(Cl)cc1 [Compound 227, N-[4-[4-(1,2-Benzothiazol-3-yl)piperazin-1-yl]butyl]-4-chlorobenzenesulphonamide]	94	89	104	90	2	76	90	92
O=S(=O)(NCCCCN1CCN(c2nsc3ccccc23)CC1)c1ccc(Cl)c(Cl)c1 [Compound 228, N-[4-[4-(1,2-Benzothiazol-3-yl)piperazin-1-yl]butyl]-3,4-dichlorobenzenesulphonamide]	98	81	103	91	16	87	92	92
O=S(=O)(NCCCCN1CCN(c2nsc3ccccc23)CC1)c1ccc(Br)cc1 [Compound 229, N-[4-[4-(1,2-Benzothiazol-3-yl)piperazin-1-yl]butyl]-4-bromobenzenesulphonamide]	89	92	101	80	9	75	95	96
